How the values were obtained:
Type in all cases: cell-based
[1] = tested on: TPP1; assay: Immunofluorescence for TPP1 in mouse primary astrocytes
Experimental: Astroglia were isolated from mixed glial cultures as described (17,18) according to the procedure of Giulian and Baker (19). Briefly, on day 9, the mixed glial cultures were washed three times with Dulbecco's modified Eagle's medium/F-12 and subjected to shaking at 240 rpm for 2 h at 37° C. on a rotary shaker to remove microglia. After 2 days, the shaking was repeated for 24 h for the removal of oligodendroglia and to ensure the complete removal of all nonastroglial cells. The attached cells were seeded onto new plates for further studies. Immunocytochemistry was performed as described earlier (25). Briefly, 8 well chamber slides containing mouse primary astrocytes, mouse neurons, human primary astrocytes or SH-SY5Y cells were cultured to 70-80% confluence were fixed with chilled Methanol (Fisher Scientific, Waltham, Mass.) overnight, followed by two brief rinses with filtered PBS. Samples were blocked with 2% BSA (Fisher Scientific) in PBS containing Tween 20 (Sigma) and Triton X-100 (Sigma) for 30 min and incubated at room temperature under shaking conditions for 2 hr in PBS containing the following anti-mouse primary antibodies: […] Santa Cruz Biotech, Santa Cruz, Calif.), GFAP, (1:100; Santa Cruz), and 3-tubulin (1:5000; Millipore). […] The samples were run in an EtOH and Xylene (Fisher) gradient, mounted and observed under Olympus BX41 fluorescence microscope.

[2] = tested on: Cln2 mRNA; assay: Cln2 mRNA expression by semi-quantitative RT-PCR and real-time PCR in mouse primary astrocytes
Experimental: Astroglia were isolated from mixed glial cultures as described (17,18) according to the procedure of Giulian and Baker (19). Briefly, on day 9, the mixed glial cultures were washed three times with Dulbecco's modified Eagle's medium/F-12 and subjected to shaking at 240 rpm for 2 h at 37° C. on a rotary shaker to remove microglia. After 2 days, the shaking was repeated for 24 h for the removal of oligodendroglia and to ensure the complete removal of all nonastroglial cells. The attached cells were seeded onto new plates for further studies. Total RNA was isolated from mouse primary astrocytes and human primary astrocytes using RNA-Easy Qiagen (Valencia, Calif.) kit following manufactures protocol. Semi-quantitative RT-PCR was carried out as described earlier (24) using oligo (dT) 12-18 as primer and moloney murine leukemia virus reverse transcriptase (MMLV-RT, Invitrogen) in a 20 μl reaction mixture. The resulting cDNA was appropriately amplified using Promega Master Mix (Madison, Wis.) and the following primers (Invitrogen) for murine genes: The mRNA quantification was performed using the ABI-Prism7700 sequence detection system (Applied Biosystems, Foster City, Calif.) using iTaq™ Fast Supermix With ROX (Bio-Rad, Hercules, Calif.) and the following 6-FAM/ZEN/IBFQ-labeled primers for murine genes: Cln2 and Gapdh (Integrated DNA Technologies Coralville, Iowa). The mRNA expression of the targeted genes was normalized to the level of Gapdh mRNA and data was processed by the ABI Sequence Detection System 1.6 software.

[3] = tested on: lysosome-associated membrane protein 2 (LAMP2); assay: Double-labeling for LAMP2 and β-tubulin in human neurons; settings: 25 μM gemfibrozil and 10 μM fenofibrate, 24 hours
From the text: (§1) DAPI was used to visualize nuclei. Results represent 3 independent experiments.

[4] = tested on: lysosomal genes; assay: Quantitative real-time PCR for lysosomal genes in mouse astrocytes; settings: 25 μM gemfibrozil, different time points, serum free
Experimental: (FIG. 13A) Quantitative real-time PCR for lysosomal genes in mouse astrocytes treated with 25 μM gemfibrozil for different time points under serum free conditions. […] (FIG. 13B) RT-PCR for lysosomal genes in human astrocytes treated under same condition. […] Results represent 3 independent experiments.

[5] = tested on: primary human neurons; assay: LysoTracker labeling of lysosomes in primary human neurons; settings: 25 μM gemfibrozil and 10 μM fenofibrate, 24 hours
From the text: as §1

[6] = tested on: TPP1; assay: Immunofluorescence for TPP1 in human primary astrocytes; settings: 25 μM gemfibrozil and 10 μM fenofibrate, 24 hrs
Experimental: Following four 15 minute washes with filtered PBS, cells were incubated for 4-5 min with 4′, 6-diamidino-2-phenylindole (DAPI, 1:10,000; Sigma).

[7] = tested on: TPP1; assay: Western blot for TPP1 in mouse primary neurons; settings: neurons from cortex, hippocampus, striatum; 25 μM gemfibrozil, 24 hrs
Experimental: Fetal (E18-E16) mouse neurons were prepared as previously described (23) with modifications. Whole brains were removed and cortical, hippocampal, striatal and cerebellar fractions were dissected in serum free Neurobasal media. The cells were washed by centrifugation three times at 1200 rpm for 10 min, the pellet dissociated and the cells plated at 10% confluence in 8-well chamber slides pre-treated for >2 hr with Poly-D-Lysine (Sigma, St. Louis, Mo.). After 4 min, the non-adherent cell suspension was aspirated and […] complete Neurobasal media (Invitrogen) supplemented with 2% B27 was added to each well. The cells were incubated for 4 days prior to experimentation. […] The cells were stimulated with gemfibrozil in Neurobasal media supplemented with 2% B27 minus antioxidants (Invitrogen) for 24 hr prior to methanol fixation and immunostaining.
Western blotting was conducted as described earlier (27,28) with modifications. Briefly, cells were scraped in double-distilled H20 and sodium dodecyl sulfate (SDS), electrophoresed on NuPAGE® Novex® 4-12% Bis-Tris gels (Invitrogen) and proteins transferred onto a nitrocellulose membrane (Bio-Rad) using the Thermo-Pierce Fast Semi-Dry Blotter. […]
Protein blots were analyzed using ImageJ (NIH, Bethesda, Md.) and bands were normalized to their respective β-actin loading controls. […]

`Cc1ccc(C)c(OCCCC(C)(C)C(=O)O)c1` [gemfibrozil] was tested, and the “TPP1 (immunofluorescence)” value ([1]; PPARα−/− astrocytes compared to WT and PPARβ−/− cells, 25 μM gemfibrozil and 10 μM fenofibrate, 24 hrs) was “little or no increase”, the “TPP1 protein (immunofluorescence)” value ([1]; mouse primary astrocytes, different concentrations) was “dose dependant increase” and the “Cln2 mRNA expression” value ([2]; PPARα−/− astrocytes, different concentrations, 24 hrs) was “little or no effect”. For the same compound, the “Cln2 mRNA expression in presence of PPARγ antagonist” value ([2]; WT astrocytes pre-treated with GW9662 for 30 min) was “increased expression”, the “Cln2 level (quantitative real time PCR)” value ([2]; astrocytes with RXRα knockdown (RXRα siRNA), gemfibrozil (10 μM), RA (0.5 μM) alone and in combination) was “almost unresponsive” and the “increase in Cln2 mRNA levels (quantitative real time PCR)” value ([2]; mouse primary astrocytes, 24 hrs, RA 0.5 μM, gemfibrozil 10 μM, combination 10 μM gemfibrozil and 0.5 μM RA) was roughly 4 fold. The “Cln2 mRNA levels (RT-PCR and qPCR)” value ([2]; mouse primary astrocytes, serum free media, different doses and time points, maximum increase at 24 hrs of 25 μM gemfibrozil) was “upregulated”, the “LAMP2 (double-labeling)” value [3] was “upregulation” and the “lysosomal genes mRNA (quantitative real-time PCR)” value [4] was “upregulation”. For the same compound, the “lysosomal proliferation (LysoTracker)” value [5] was “upregulation”, the “level of TPP1 protein (immunofluorescence)” value [6] was “considerable increase” and the “increase in TPP1 protein (Western blot, densitometric quantification)” value [7] was 2-3 fold.

Source: patent US11351142B2, “Composition and method for treating neuronal ceroid lipofuscinosis” (Rush University Medical Center, priority 2012, dated 2022)
